Molecular target: T1, memapsin 2 (Cricetulus griseus, UniProt G3IAK4)
T1 construct: endogenous in cells; host or cells: Chinese hamster ovary cells over-expressing human APP695 (London + Swedish)
Assay: Cellular Aβ IC50 determination (Aβ40 sandwich ELISA)
Assay type: cell-based
Settings: Chinese hamster ovary cells over-expressing human APP695 with London and Swedish mutations, 24 h
Method: The potency of compounds against memapsin 2 activity was determined in a cellular assay of Aβ production. […] Chinese hamster ovary cells that over-express human APP695 with the London and Swedish mutations were seeded in multi-well plates at 10% confluency. Compounds were dissolved in DMSO to concentrations near 1 mM, and diluted into culture media to a final concentration near 4 μM (final 0.4% DMSO). Compounds were diluted serially and applied to cells in multi-well plates 48 h after seeding. Incubation was continued in 5% CO2 at 37 degrees C. for 24 h. Aliquots were removed and assayed for Aβ40 content using a sandwich ELISA (BioSource International). Amount of Aβ40 over the range of concentration of compounds, relative to control incubations, were fit to a 4-parameter IC50 model.

T1 sequence (G3IAK4 22-501): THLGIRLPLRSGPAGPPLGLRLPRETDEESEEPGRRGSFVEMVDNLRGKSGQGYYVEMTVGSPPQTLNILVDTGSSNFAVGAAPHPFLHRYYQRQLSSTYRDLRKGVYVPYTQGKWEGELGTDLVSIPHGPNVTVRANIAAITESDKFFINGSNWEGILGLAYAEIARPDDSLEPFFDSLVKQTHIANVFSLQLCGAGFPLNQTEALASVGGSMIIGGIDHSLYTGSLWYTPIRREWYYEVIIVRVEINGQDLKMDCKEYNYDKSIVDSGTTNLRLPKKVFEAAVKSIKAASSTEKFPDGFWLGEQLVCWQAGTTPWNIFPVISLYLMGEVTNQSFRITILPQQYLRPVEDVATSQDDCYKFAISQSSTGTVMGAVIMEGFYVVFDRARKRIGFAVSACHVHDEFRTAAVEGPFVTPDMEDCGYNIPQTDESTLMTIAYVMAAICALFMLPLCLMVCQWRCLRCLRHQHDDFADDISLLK

Compound	IC50
Cc1csc(CC(C)C(=O)NC(CNC(=O)OC2CCOC2)C(=O)NC(CC(C)C)C(O)CC(C)C(=O)NC(C(=O)NCC(C)C)C(C)C)n1 (centres unmarked) [tetrahydrofuran-3-yl 3-(5-hydroxy-8-(1-(isobutylamino)-3-methyl-1-oxobutan-2-ylamino)-2,7-dimethyl-8-oxooctan-4-ylamino)-2-(2-methyl-3-(4-methylthiazol-2-yl)propanamido)-3-oxopropylcarbamate]	< 6 µM
CCC(Cc1nc(C)cs1)C(=O)NC(CNC(=O)OC(C)C)C(=O)NC(CC(C)C)C(O)CC(C)C(=O)NC(C(=O)NCC(C)C)C(C)C (centres unmarked) [isopropyl 3-(5-hydroxy-8-(1-(isobutylamino)-3-methyl-1-oxobutan-2-ylamino)-2,7-dimethyl-8-oxooctan-4-ylamino)-2-(2-((4-methylthiazol-2-yl)methyl)butanamido)-3-oxopropylcarbamate]	< 6 µM
Cc1csc(COC(=O)N[C@@H](CNS(C)(=O)=O)C(=O)N[C@@H](CC(C)C)[C@@H](O)C[C@@H](C)C(=O)N[C@H](C(=O)NCC(C)C)C(C)C)n1	> 100 µM
COC(=O)NCC(NC(=O)C(C)Cc1nc(C)cs1)C(=O)NC(CC(C)C)C(O)CC(C)C(=O)NC(C(=O)NCC(C)C)C(C)C (centres unmarked) [methyl 3-(5-hydroxy-8-(1-(isobutylamino)-3-methyl-1-oxobutan-2-ylamino)-2,7-dimethyl-8-oxooctan-4-ylamino)-2-(2-methyl-3-(4-methylthiazol-2-yl)propanamido)-3-oxopropylcarbamate]	< 6 µM
Cc1csc(CC(C)C(=O)NC(CN)C(=O)NC(CC(C)C)C(O)CC(C)C(=O)NC(C(=O)NCC(C)C)C(C)C)n1 (centres unmarked) [5-(3-amino-2-(2-methyl-3-(4-methylthiazol-2-yl)propanamido)propanamido)-4-hydroxy-N-(1-(isobutylamino)-3-methyl-1-oxobutan-2-yl)-2,7-dimethyloctanamide]	6 to 100 µM
Cc1csc(CC(C)C(=O)NC(CNC(=O)OC(C)(C)C)C(=O)NC(Cc2cc(F)cc(F)c2)C(O)CC(C)C(=O)NC(C(=O)NCC(C)C)C(C)C)n1 (centres unmarked) [tert-butyl 3-(1-(3,5-difluorophenyl)-3-hydroxy-6-(1-(isobutylamino)-3-methyl-1-oxobutan-2-ylamino)-5-methyl-6-oxohexan-2-ylamino)-2-(2-methyl-3-(4-methylthiazol-2-yl)propanamido)-3-oxopropylcarbamate]	6 to 100 µM
CCC(Cn1nc(C)cc1C)C(=O)NC(CNC(=O)OC(C)(C)C)C(=O)NC(CC(C)C)C(O)CC(C)C(=O)NC(C(=O)NCC(C)C)C(C)C (centres unmarked) [tert-butyl 2-(2-((3,5-dimethyl-1H-pyrazol-1-yl)methyl)butanamido)-3-(5-hydroxy-8-(1-(isobutylamino)-3-methyl-1-oxobutan-2-ylamino)-2,7-dimethyl-8-oxooctan-4-ylamino)-3-oxopropylcarbamate]	< 6 µM
Cc1cc(C)n(CC(N=[N+]=[N-])C(=O)NC(CNC(=O)OC(C)(C)C)C(=O)NC(CC(C)C)C(O)CC(C)C(=O)NC(C(=O)NCC(C)C)C(C)C)n1 (centres unmarked) [tert-butyl 2-(2-azido-3-(3,5-dimethyl-1H-pyrazol-1-yl)propanamido)-3-(5-hydroxy-8-(1-(isobutylamino)-3-methyl-1-oxobutan-2-ylamino)-2,7-dimethyl-8-oxooctan-4-ylamino)-3-oxopropylcarbamate]	6 to 100 µM
COC(Cn1nc(C)cc1C)C(=O)NC(CNC(=O)OC(C)(C)C)C(=O)NC(CC(C)C)C(O)CC(C)C(=O)NC(C(=O)NCC(C)C)C(C)C (centres unmarked) [tert-butyl 2-(3-(3,5-dimethyl-1H-pyrazol-1-yl)-2-methoxypropanamido)-3-(5-hydroxy-8-(1-(isobutylamino)-3-methyl-1-oxobutan-2-ylamino)-2,7-dimethyl-8-oxooctan-4-ylamino)-3-oxopropylcarbamate]	> 100 µM
Cc1csc(COC(=O)N[C@@H](CNC(=O)O[C@H]2CCOC2)C(=O)N[C@@H](CC(C)C)[C@@H](O)C[C@@H](C)C(=O)N[C@H](C(=O)NCC(C)C)C(C)C)n1	6 to 100 µM
CCC(Cn1nc(C)cc1C)C(=O)NC(CNC(=O)OC(C)(C)C)C(=O)NC(CC(C)C)C(O)CC(C)C(=O)NC(C(=O)NCC(F)(F)F)C(C)C (centres unmarked) [tert-butyl 2-(2-((3,5-dimethyl-1H-pyrazol-1-yl)methyl)butanamido)-3-(5-hydroxy-2,7-dimethyl-8-(3-methyl-1-oxo-1-(2,2,2-trifluoroethylamino)butan-2-ylamino)-8-oxooctan-4-ylamino)-3-oxopropylcarbamate]	6 to 100 µM
CCC(Cn1nc(C)cc1C)C(=O)NC(CNC(=O)OC(C)(C)C)C(=O)NC(CC(C)C)C(O)CC(C)C(=O)NC(C(=O)NCc1ccncc1)C(C)C (centres unmarked) [tert-butyl 2-(2-((3,5-dimethyl-1H-pyrazol-1-yl)methyl)butanamido)-3-(5-hydroxy-2,7-dimethyl-8-(3-methyl-1-oxo-1-(pyridin-4-ylmethylamino)butan-2-ylamino)-8-oxooctan-4-ylamino)-3-oxopropylcarbamate]	< 6 µM
CCC(Cc1nc(C)cs1)C(=O)NC(CNC(=O)OC(C)(C)C)C(=O)NC(CC(C)C)C(O)CC(C)C(=O)NC(C(=O)NCC(C)C)C(C)C (centres unmarked) [tert-butyl 3-(5-hydroxy-8-(1-(isobutylamino)-3-methyl-1-oxobutan-2-ylamino)-2,7-dimethyl-8-oxooctan-4-ylamino)-2-(2-((4-methylthiazol-2-yl)methyl)butanamido)-3-oxopropylcarbamate]	< 6 µM
CCC(CC(O)C(CC(C)C)NC(=O)C(CNC(=O)OC(C)(C)C)NC(=O)C(C)Cc1nc(C)cs1)C(=O)NC(C(=O)NCC(C)C)C(C)C (centres unmarked) [tert-butyl 3-(5-hydroxy-7-(1-(isobutylamino)-3-methyl-1-oxobutan-2-ylcarbamoyl)-2-methylnonan-4-ylamino)-2-(2-methyl-3-(4-methylthiazol-2-yl)propanamido)-3-oxopropylcarbamate]	< 6 µM
Cc1cc(C)n(CC(C)C(=O)NC(CNC(=O)OC2CCOC2)C(=O)NC(CC(C)C)C(O)CC(C)C(=O)NC(C(=O)NCC(C)C)C(C)C)n1 (centres unmarked) [tetrahydrofuran-3-yl 2-(3-(3,5-dimethyl-1H-pyrazol-1-yl)-2-methylpropanamido)-3-(5-hydroxy-8-(1-(isobutylamino)-3-methyl-1-oxobutan-2-ylamino)-2,7-dimethyl-8-oxooctan-4-ylamino)-3-oxopropylcarbamate]	6 to 100 µM
Cc1csc(COC(=O)NCC(NC(=O)C(C)Cc2nc(C)cs2)C(=O)NC(CC(C)C)C(O)CC(C)C(=O)NC(C(=O)NCC(C)C)C(C)C)n1 (centres unmarked) [(4-methylthiazol-2-yl)methyl 3-(5-hydroxy-8-(1-(isobutylamino)-3-methyl-1-oxobutan-2-ylamino)-2,7-dimethyl-8-oxooctan-4-ylamino)-2-(2-methyl-3-(4-methylthiazol-2-yl)propanamido)-3-oxopropylcarbamate]	< 6 µM
CCC(Cn1nc(C)cc1C)C(=O)NC(CNC(=O)OC(C)(C)C)C(=O)NC(CC(C)C)C(O)CC(C)C(=O)NC(C(=O)NCc1ccccn1)C(C)C (centres unmarked) [tert-butyl 2-(2-((3,5-dimethyl-1H-pyrazol-1-yl)methyl)butanamido)-3-(5-hydroxy-2,7-dimethyl-8-(3-methyl-1-oxo-1-(pyridin-2-ylmethylamino)butan-2-ylamino)-8-oxooctan-4-ylamino)-3-oxopropylcarbamate]	6 to 100 µM
Cc1csc(CC(C)C(=O)NC(CNS(C)(=O)=O)C(=O)NC(CC(C)C)C(O)CC(C)C(=O)NC(C(=O)NCC(C)C)C(C)C)n1 (centres unmarked) [4-hydroxy-N-(1-(isobutylamino)-3-methyl-1-oxobutan-2-yl)propanamido)-3-(methylsulfonamido)propanamido)octanamide]	< 6 µM
Cc1nc(CC(C)C(=O)NC(CNC(=O)OC(C)(C)C)C(=O)NC(CC(C)C)C(O)CC(C)C(=O)NC(C(=O)NCC(C)C)C(C)C)c(C)o1 (centres unmarked) [tert-butyl 2-(3-(2,5-dimethyloxazol-4-yl)-2-methylpropanamido)-3-(5-hydroxy-8-(1-(isobutylamino)-3-methyl-1-oxobutan-2-ylamino)-2,7-dimethyl-8-oxooctan-4-ylamino)-3-oxopropylcarbamate]	< 6 µM
Cc1csc(COC(=O)N[C@@H](CNC(=O)OC(C)(C)C)C(=O)N[C@@H](CC(C)C)[C@@H](O)C[C@@H](C)C(=O)N[C@H](C(=O)NCC(C)C)C(C)C)n1	> 100 µM
Cc1csc(CC(C)C(=O)NC(CN(C)S(C)(=O)=O)C(=O)NC(CC(C)C)C(O)CC(C)C(=O)NC(C(=O)NCC(C)C)C(C)C)n1 (centres unmarked) [4-hydroxy-N-(1-(isobutylamino)-3-methyl-1-oxobutan-2-yl)-2,7-dimethyl-5-(2-(2-methyl-3-(4-methylthiazol-2-yl)propanamido)-3-(N-methylmethylsulfonamido)propanamido)octanamide]	6 to 100 µM
CCC(Cn1nc(C)cc1C)C(=O)NC(CNC(=O)OCCF)C(=O)NC(CC(C)C)C(O)CC(C)C(=O)NC(C(=O)NCC(C)C)C(C)C (centres unmarked) [2-fluoroethyl 2-(2-((3,5-dimethyl-1H-pyrazol-1-yl)methyl)butanamido)-3-(5-hydroxy-8-(1-(isobutylamino)-3-methyl-1-oxobutan-2-ylamino)-2,7-dimethyl-8-oxooctan-4-ylamino)-3-oxopropylcarbamate]	6 to 100 µM
Cc1csc(CC(C)C(=O)NC(CNC(=O)OC(C)(C)C)C(=O)NC(Cc2ccccc2)C(O)CC(C)C(=O)NC(C(=O)NCC(C)C)C(C)C)n1 (centres unmarked) [tert-butyl 3-(3-hydroxy-6-(1-(isobutylamino)-3-methyl-1-oxobutan-2-ylamino)-5-methyl-6-oxo-1-phenylhexan-2-ylamino)-2-(2-methyl-3-(4-methylthiazol-2-yl)propanamido)-3-oxopropylcarbamate]	6 to 100 µM

From patent US20080125467A1, “Amino-Containing Compounds Which Inhibit Memapsin 2 Beta-Secretase Activity and Methods of Use Thereof” (priority 2004, published 2008)
